SMILES strings stand for the structures.

The term melting point denotes the temperature, or range, at which the solid turns liquid. As for `O=C(Nc1ncnc2c1c(Cl)cn2[C@H]1C[C@H](O)[C@@H](CO)O1)c1ccccc1` [Compound 4, 4-Benzoylamino-5-chloro-7-(2-deoxy-β-D-erythropentofuranosyl)-7H-pyrrolo[2,3-d]pyrimidine], the melting point is 190 °C.

`O=C(Nc1ncnc2c1c(Br)cn2[C@H]1C[C@H](O)[C@@H](CO)O1)c1ccccc1` [Compound 5, 4-Benzoylamino-5-bromo-7-(2-deoxy-β-D-erythropentofuranosyl)-7H-pyrrolo[2,3-d]pyrimidine] returned a melting point of 198 °C. Under `Cc1cn([C@H]2C[C@H](O)[C@@H](CO)O2)c2ncnc(NC(=O)c3ccccc3)c12` [Compound 6, 4-Benzoylamino-7-(2-deoxy-β-D-erythropentofuranosyl)-5-methyl-7H-pyrrolo[2,3-d]pyrimidine] stands 196 °C; under `Nc1ncnc2c1c(I)cn2[C@H]1C[C@H](O)[C@@H](CO)O1` [Compound 14, 4-Amino-7-(2-deoxy-β-D-erythropentofuranosyl)-5-iodo-7H-pyrrolo [2,3-d]pyrimidine], 194 °C; under `COc1nc(NC=O)nc2c1c(Cl)c(Cl)n2[C@H]1C[C@H](OC(=O)C(C)C)[C@@H](COC(=O)C(C)C)O1` [Compound 49, 7-[2-Deoxy-3,5-di-O-(2-methylpropionyl)-β-D-erythropentofuranosyl]-5,6-dichloro-2-[(formyl)amino]-4-methoxy-7H-pyrrolo[2,3-d]pyrimidine], 127 to 128 °C. Then `Nc1nc2c(c(I)cn2[C@H]2C[C@H](O)[C@@H](CO)O2)c(=O)[nH]1` [Compound 58, 2-Amino-7-(2-deoxy-β-D-erythropentofuranosyl)-5-iodo-3,7-dihydro-4H-pyrrolo[2,3-d]pyrimidin-4-one], with 218 to 220 °C.

(Values after US6479651B1, “Modified oligonucleotides, their preparation and their use” (Aventis Pharma Deutschland GmbH, priority 1994, dated 2002).)
